Patent US20210093531A1, “DERIVATIVES OF MENTHOL AND USES THEREOF” (Board of Trustees of Northern Illinois University, priority 2019, published 2021)
Marks after values point to notes of the source that are not given here.

Legend:
[1] = system: trained panelists; assay: time-intensity analysis of cooling, lozenge application; type: in vivo; details: 4-minute window
Description: In order to evaluate the potential use of menthol glycinates as […] different food, beverage and oral hygiene products, select compounds were incorporated in different application systems. A beverage model system, a lozenge and a mouthwash application were created, and time-intensity analysis was performed using trained discrimination analysis panelists. Time-Intensity (TI) is a temporal sensory method. During TI evaluations, assessors are asked to score the intensity of perception of a single attribute over consumption of the product. Compared to single point measurements, TI analysis can characterize the onset, decline and rates thereof, of particular sensory characteristics. This analysis may reveal rich information regarding the intensity of an attribute over the time domain and identify temporal perceptual differences among samples that can greatly impact the overall profile of a product. For each sample evaluation, a temporal curve is generated, based on duplication. The temporal curves for each panelist are combined to generate a combined curve for each product that is evaluated. The following distinct parameters were calculated: Imax: peak intensity or maximum observed intensity on the whole curve; […]: time point where the reaction to the stimulus is first perceived on the curve; Tmax: time position of the peak intensity on the curve; Tplateau: protraction of maximum intensity or duration of maximum intensity; Text: time point of extinction of the perception of the stimulus, defined as the position in time after the peak intensity where the measured intensity disappears (or the end of evaluation window); Iext: intensity at time of extinction or end of evaluation; R increase: slope or rate of intensity increase between […] and Tmax; R decrease: slope or rate of intensity decrease between Tmax and Text; and Area: the total area under the time-intensity curve. The formula detailed in Table 4 was employed to create the lozenge application to evaluate menthol glycinates of interest using time-intensity analysis. [table] For time-intensity (T-I) evaluation of the cooling intensity of lozenges, 9 panelists were recruited (3 male, 6 female). Panelists were trained in basic taste descriptive analysis. A sweetness reference series (intensity range 2-12) was provided to be used as cross-modality reference to aid in scaling the intensity of the cool attribute present in the lozenge samples. Panelists evaluated samples in duplicates and all samples were presented blinded and in a randomized order using a 3-digit code. Panelists were instructed to provide cooling intensity at predetermined time points throughout an evaluation window of 4 minutes. […] Evaluations were performed with at least 4 hours between them to ensure no carry over. Data analysis for generation of T-I statistics and ANOVA analysis to determine significant difference among samples was performed using R STUDIO.

[2] = system: trained panelists; assay: time-intensity analysis of cooling, beverage model system; type: in vivo; details: 100 ppm, 2-minute window
Description: In order to evaluate the potential use of menthol glycinates as […] different food, beverage and oral hygiene products, select compounds were incorporated in different application systems. A beverage model system, a lozenge and a mouthwash application were created, and time-intensity analysis was performed using trained discrimination analysis panelists. Time-Intensity (TI) is a temporal sensory method. During TI evaluations, assessors are asked to score the intensity of perception of a single attribute over consumption of the product. Compared to single point measurements, TI analysis can characterize the onset, decline and rates thereof, of particular sensory characteristics. This analysis may reveal rich information regarding the intensity of an attribute over the time domain and identify temporal perceptual differences among samples that can greatly impact the overall profile of a product. For each sample evaluation, a temporal curve is generated, based on duplication. The temporal curves for each panelist are combined to generate a combined curve for each product that is evaluated. The following distinct parameters were calculated: Imax: peak intensity or maximum observed intensity on the whole curve; […]: time point where the reaction to the stimulus is first perceived on the curve; Tmax: time position of the peak intensity on the curve; Tplateau: protraction of maximum intensity or duration of maximum intensity; Text: time point of extinction of the perception of the stimulus, defined as the position in time after the peak intensity where the measured intensity disappears (or the end of evaluation window); Iext: intensity at time of extinction or end of evaluation; R increase: slope or rate of intensity increase between […] and Tmax; R decrease: slope or rate of intensity decrease between Tmax and Text; and Area: the total area under the time-intensity curve. The formula detailed in Table 6 was employed to create a simple beverage model system to evaluate menthol glycinates of interest using time-intensity analysis. [table] For time-intensity (T-I) evaluation of the cooling attribute of the model beverage system 8 panelists were recruited (2 male, 6 female). Panelists were trained in basic taste descriptive analysis. A sweetness reference series (intensity range 2-12) was provided to be used as cross-modality reference to aid in scaling the intensity of the cool attribute present in the model beverage samples. Panelists evaluated samples in duplicates and all sample were presented blinded and in a randomized order using a 3-digit code. Panelists were instructed to hold the sample in their mouths for 30 seconds and then expectorate. During the hold period panelists were instructed to note cooling onset and intensity. After expectorating, the panelists continued to report cooling intensity at predetermined time points throughout an evaluation window of 2 minutes. Samples were presented pre-weighted, and panelists were instructed to evaluate the entire amount of sample to ensure uniformity among panelists and replicate evaluations. Evaluations were performed with at least 4 hours between them to ensure no carry over. Data analysis for generation of T-I statistics and ANOVA analysis to determine significant difference among samples was performed using R STUDIO.

Row | Molecule | Tmax (time of peak intensity) [1] | Tstart (time cooling first perceived) [1] | Rdec [2] | Rinc [2] | Tstart [2] | RInc (rate of intensity increase) [1] | Imax (peak cooling intensity) ([1]; 0.05 g test compound per 100 g, 2 g sample, 9 panelists) | AUC (total area under time-intensity curve) [1] | RDec (rate of intensity decrease) [1] | Imax (peak cooling intensity) ([2]; 2% propylene glycol in water) | AUC [2] | Tplateau (duration of maximum intensity) [2]
1 | CC(C)[C@@H]1CC[C@@H](C)C[C@H]1OC(=O)CN(C)C(C)C [Product 16, (1R,2S,5R)-2-Isopropyl-5-methylcyclohexyl 2-(isopropyl(methyl)amino)acetate] | 204.71^a | 7.85^ac | 0.02^a | 0.05^b | 16^c | – | – | – | – | – | – | –
2 | CCCCN(CCCC)CC(=O)O[C@@H]1C[C@H](C)CC[C@H]1C(C)C [Product 10, (1R,2S,5R)-2-Isopropyl-5-methylcyclohexyl 2-(dibutylamino)acetate] | 210.00^a | – | 0.06^a | 0.04^b | 6.1^b | – | – | – | – | – | – | –
3 | (1R,2S,5R)-2-Isopropyl-5-methylcyclohexyl 2-(isopropylamino)acetate [Product 7] | 210.00^a | – | 0.02^a | 0.06^b | 16^c | 0.041^ab | – | – | – | – | – | –
4 | CC1CCC(C(C)C)C(O)C1 (centres unmarked) [Menthol, menthol] | 180.00^b | 5.00^b | 0.03^a | 0.12^a | 10^a | 0.053^b | 11.53^bc^ | 2064.83^b | 0.056^b | 5^a | 429.1^a | 23.3^a
